Assay [1] deals with T1, Protein kinase C beta type (Homo sapiens, UniProt P05771). Nature of the assay: Inhibition of human Protein kinase C beta 1.
In assay [2] the target is Protein kinase C delta type (Homo sapiens, UniProt Q05655). Briefly: Inhibition of human Protein kinase C delta.
In assay [3] the target is T1, Protein kinase C beta type. Briefly: Inhibition of human Protein kinase C beta 2.
Assay [4] concerns the target Protein kinase C alpha type (Homo sapiens, UniProt P17252). Briefly: Inhibition of human Protein kinase C alpha.
Assay [5] deals with T2, Protein kinase C epsilon type (Homo sapiens, UniProt Q02156).
T2 sequence (Q02156 whole entry): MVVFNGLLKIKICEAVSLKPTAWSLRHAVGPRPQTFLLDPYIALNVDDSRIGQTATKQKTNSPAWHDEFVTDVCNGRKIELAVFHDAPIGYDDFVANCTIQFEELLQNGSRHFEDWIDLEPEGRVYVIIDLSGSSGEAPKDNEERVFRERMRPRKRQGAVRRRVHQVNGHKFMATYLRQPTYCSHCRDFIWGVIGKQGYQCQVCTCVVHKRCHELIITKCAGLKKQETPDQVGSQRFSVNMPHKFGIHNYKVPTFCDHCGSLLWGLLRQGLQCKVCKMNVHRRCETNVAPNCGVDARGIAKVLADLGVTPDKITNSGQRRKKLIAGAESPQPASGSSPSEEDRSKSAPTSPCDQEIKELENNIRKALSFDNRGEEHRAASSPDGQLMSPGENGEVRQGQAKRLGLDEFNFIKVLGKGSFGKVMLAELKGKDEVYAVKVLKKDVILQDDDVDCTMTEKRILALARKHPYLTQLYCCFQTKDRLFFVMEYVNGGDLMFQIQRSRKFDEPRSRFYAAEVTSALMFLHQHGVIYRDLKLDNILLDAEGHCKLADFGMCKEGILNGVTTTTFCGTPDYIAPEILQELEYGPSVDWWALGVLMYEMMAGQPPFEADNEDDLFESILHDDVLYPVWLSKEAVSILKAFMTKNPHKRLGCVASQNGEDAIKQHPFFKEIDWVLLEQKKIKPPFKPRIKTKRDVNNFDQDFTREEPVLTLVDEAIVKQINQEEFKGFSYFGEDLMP
Nature of the assay: Inhibition of human Protein kinase C epsilon.

Assay [6] has as its target Protein kinase C eta type (Homo sapiens, UniProt P24723). Nature of the assay: Inhibition of human Protein Kinase C eta.
Assay [7] concerns the target Protein kinase C gamma type (Homo sapiens, UniProt P05129). Nature of the assay: Inhibition of human Protein kinase C gamma.
The target in assay [8] is T3, Protein kinase C zeta type (Homo sapiens, UniProt Q05513).
T3 sequence (Q05513 whole entry): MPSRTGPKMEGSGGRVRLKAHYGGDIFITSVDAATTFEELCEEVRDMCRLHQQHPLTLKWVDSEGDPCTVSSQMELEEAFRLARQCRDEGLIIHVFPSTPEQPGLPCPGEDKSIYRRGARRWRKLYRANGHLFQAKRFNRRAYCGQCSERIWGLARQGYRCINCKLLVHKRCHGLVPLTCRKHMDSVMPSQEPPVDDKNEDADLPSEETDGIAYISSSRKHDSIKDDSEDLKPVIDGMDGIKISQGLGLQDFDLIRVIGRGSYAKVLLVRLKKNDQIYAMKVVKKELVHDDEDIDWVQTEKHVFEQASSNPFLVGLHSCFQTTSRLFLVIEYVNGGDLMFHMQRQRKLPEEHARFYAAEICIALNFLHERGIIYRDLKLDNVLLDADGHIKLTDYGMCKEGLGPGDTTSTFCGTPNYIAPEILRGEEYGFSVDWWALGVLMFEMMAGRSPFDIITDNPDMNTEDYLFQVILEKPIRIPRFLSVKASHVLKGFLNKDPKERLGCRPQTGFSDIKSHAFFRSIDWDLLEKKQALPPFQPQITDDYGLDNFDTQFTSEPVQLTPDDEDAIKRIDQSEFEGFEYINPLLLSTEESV
Nature of the assay: Inhibition of Protein kinase C zeta.

Eight compounds from ChEMBL document CHEMBL1151070 (Bioorg Med Chem Lett, 1995) can be followed below.

One may read the IC50 as the concentration that inhibits the measured activity by half. Lower therefore signals greater potency in that assay.

T1 sequence (P05771 whole entry): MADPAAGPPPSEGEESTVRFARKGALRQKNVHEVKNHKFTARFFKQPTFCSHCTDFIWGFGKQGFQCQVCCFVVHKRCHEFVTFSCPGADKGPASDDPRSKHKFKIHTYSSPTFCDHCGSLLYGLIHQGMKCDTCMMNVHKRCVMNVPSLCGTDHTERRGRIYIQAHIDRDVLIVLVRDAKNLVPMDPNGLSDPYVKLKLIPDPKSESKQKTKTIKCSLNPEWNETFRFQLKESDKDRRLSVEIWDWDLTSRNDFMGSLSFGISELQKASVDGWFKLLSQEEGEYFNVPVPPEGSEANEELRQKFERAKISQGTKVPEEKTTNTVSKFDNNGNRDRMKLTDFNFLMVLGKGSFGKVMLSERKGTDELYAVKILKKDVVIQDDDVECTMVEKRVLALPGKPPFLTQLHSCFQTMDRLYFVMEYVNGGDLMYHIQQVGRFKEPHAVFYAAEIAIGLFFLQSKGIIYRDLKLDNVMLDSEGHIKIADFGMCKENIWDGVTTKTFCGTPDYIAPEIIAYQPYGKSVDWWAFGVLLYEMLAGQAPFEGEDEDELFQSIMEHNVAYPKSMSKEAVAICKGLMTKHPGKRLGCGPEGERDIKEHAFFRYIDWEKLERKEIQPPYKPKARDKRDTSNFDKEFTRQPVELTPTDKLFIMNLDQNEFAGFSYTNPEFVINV
Sequence of Protein kinase C eta type (P24723 whole entry): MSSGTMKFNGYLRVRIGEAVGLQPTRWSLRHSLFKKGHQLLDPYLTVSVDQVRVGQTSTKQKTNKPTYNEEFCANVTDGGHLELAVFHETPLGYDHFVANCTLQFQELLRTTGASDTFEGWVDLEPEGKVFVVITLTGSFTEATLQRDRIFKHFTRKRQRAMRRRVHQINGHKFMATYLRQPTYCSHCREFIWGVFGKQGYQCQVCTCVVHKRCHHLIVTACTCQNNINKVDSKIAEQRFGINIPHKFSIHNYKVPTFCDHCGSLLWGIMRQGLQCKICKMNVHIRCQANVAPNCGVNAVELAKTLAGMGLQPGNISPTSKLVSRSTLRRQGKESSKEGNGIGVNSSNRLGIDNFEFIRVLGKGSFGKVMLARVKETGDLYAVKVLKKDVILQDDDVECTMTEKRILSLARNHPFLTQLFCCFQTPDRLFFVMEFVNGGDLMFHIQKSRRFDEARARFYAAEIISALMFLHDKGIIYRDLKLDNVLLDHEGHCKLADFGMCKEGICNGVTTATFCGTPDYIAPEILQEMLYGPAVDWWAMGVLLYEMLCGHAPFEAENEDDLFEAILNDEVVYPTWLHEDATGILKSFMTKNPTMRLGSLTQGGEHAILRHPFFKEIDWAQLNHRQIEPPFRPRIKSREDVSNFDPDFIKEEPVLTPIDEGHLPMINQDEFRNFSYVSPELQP
Sequence of Protein kinase C delta type (Q05655 whole entry): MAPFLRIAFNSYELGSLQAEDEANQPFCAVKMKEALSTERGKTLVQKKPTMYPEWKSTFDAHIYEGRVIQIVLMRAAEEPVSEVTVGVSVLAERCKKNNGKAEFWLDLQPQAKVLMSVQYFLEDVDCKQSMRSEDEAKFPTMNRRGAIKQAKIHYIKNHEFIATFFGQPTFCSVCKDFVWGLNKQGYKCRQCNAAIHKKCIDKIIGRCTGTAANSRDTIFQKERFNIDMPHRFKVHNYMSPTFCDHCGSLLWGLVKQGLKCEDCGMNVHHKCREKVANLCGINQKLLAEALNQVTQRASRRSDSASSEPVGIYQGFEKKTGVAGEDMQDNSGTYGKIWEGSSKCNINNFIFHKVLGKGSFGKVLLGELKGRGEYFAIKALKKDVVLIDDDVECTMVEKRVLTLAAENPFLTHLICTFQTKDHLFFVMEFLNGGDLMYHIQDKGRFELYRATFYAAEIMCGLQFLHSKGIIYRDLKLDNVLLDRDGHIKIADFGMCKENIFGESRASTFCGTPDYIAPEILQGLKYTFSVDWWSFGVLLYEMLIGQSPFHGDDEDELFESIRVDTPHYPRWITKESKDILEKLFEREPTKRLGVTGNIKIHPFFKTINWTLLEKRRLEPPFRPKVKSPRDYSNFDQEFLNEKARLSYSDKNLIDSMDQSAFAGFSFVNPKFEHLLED

For `O=C(N[C@H]1C[C@H](CO)C[C@H]1OC(=O)c1cc(O)c(C(=O)c2c(O)cccc2C(=O)O)c(O)c1)c1ccc(O)cc1`, the IC50 in assay [1] is 4 nM; in assay [2], 4 nM; in assay [3], 3 nM; in assay [4], 10 nM; in assay [5], 160 nM; in assay [6], 2 nM. In assay [7], this compound registered an IC50 of 5 nM.
As for `N[C@@H]1C[C@H](NC(=O)c2ccc(O)cc2)[C@H](OC(=O)c2cc(O)c(C(=O)c3c(O)cccc3C(=O)O)c(O)c2)C1`, the IC50 in assay [1] came to 4 nM; in assay [2], 5 nM; in assay [3], 2 nM; in assay [4], 20 nM; in assay [5], 10 nM; in assay [6], 2 nM. Besides, the figures for the IC50 in assay [8] and in assay [7] were 1200 nM and 5 nM, respectively.
`NC[C@H]1C[C@H](NC(=O)c2ccc(O)cc2)[C@H](OC(=O)c2cc(O)c(C(=O)c3c(O)cccc3C(=O)O)c(O)c2)C1`: the IC50 was found to be 4 nM in assay [1]; 6 nM in assay [2]; 4 nM in assay [3]; 20 nM in assay [4]; 30 nM in assay [5]; 3 nM in assay [6]. Besides, the IC50 in assay [8] was 2800 nM; in assay [7], 5 nM.
Consider `O=C(N[C@H]1C[C@@H](CO)C[C@H]1OC(=O)c1cc(O)c(C(=O)c2c(O)cccc2C(=O)O)c(O)c1)c1ccc(O)cc1`, for which the IC50 in assay [1] worked out at 60 nM; in assay [2], 20 nM; in assay [3], 20 nM; in assay [4], 80 nM; in assay [5], 260 nM; in assay [6] it was 20 nM. In assay [7], this compound gave an IC50 of 45 nM.
As to `NC[C@@H]1C[C@H](NC(=O)c2ccc(O)cc2)[C@H](OC(=O)c2cc(O)c(C(=O)c3c(O)cccc3C(=O)O)c(O)c2)C1`, the IC50 in assay [1] came out at 5 nM; in assay [2], 20 nM; in assay [3] it was 5 nM; in assay [4], 20 nM; in assay [5], 30 nM; in assay [6], 3 nM. For the same compound, the IC50 in assay [8] was determined as 3100 nM; in assay [7], 10 nM.
For the compound `O=C(N[C@H]1C[C@H](O)C[C@H]1OC(=O)c1cc(O)c(C(=O)c2c(O)cccc2C(=O)O)c(O)c1)c1ccc(O)cc1`, the IC50 worked out at 20 nM in assay [1]; 6 nM in assay [2]; 20 nM in assay [3]; 50 nM in assay [4]; 150 nM in assay [5]; 4 nM in assay [6]. This compound yielded an IC50 in assay [7] of 30 nM.
As to `O=C(N[C@@H]1CNCCC[C@H]1OC(=O)c1cc(O)c(C(=O)c2c(O)cccc2C(=O)O)c(O)c1)c1ccc(O)cc1` (racemic) [BALANOL], the half-maximal inhibitory concentration (IC50) in assay [2] worked out at 30 nM; in assay [3] it was 40 nM; in assay [4] it was 70 nM.
On to `O=C(N[C@H]1C[C@@H](O)C[C@H]1OC(=O)c1cc(O)c(C(=O)c2c(O)cccc2C(=O)O)c(O)c1)c1ccc(O)cc1.O=C(N[C@H]1C[C@H](O)C[C@H]1OC(=O)c1cc(O)c(C(=O)c2c(O)cccc2C(=O)O)c(O)c1)c1ccc(O)cc1` (single isomer, unassigned), for which the IC50 in assay [1] amounted to 20 nM; in assay [2], 5 nM; in assay [3], 10 nM; in assay [4] it was 40 nM; in assay [5] it was 100 nM; in assay [6] it was 3 nM. This compound also showed an IC50 in assay [7] of 20 nM.
